Measured values from ChEMBL document CHEMBL1146407, “Taxuspinananes A and B, new taxoids from Taxus cuspidata var. nana” (J Nat Prod, 1997).
≈ marks a conversion by molar mass, not a printed value.

system: P388; experiment: Cytotoxicity against mouse P388 cells after 48 hrs by MTT assay; assay type: functional, cell-based; conditions: P388, 48 h

SMILES	IC50 [mg/L]
C=C1[C@@H](O)C[C@H](OC(C)=O)[C@@]2(C)[C@@H](OC(C)=O)[C@H](OC(=O)c3ccccc3)C3=C(C)C(=O)C[C@@]3(C(C)(C)O)[C@@H](OC(C)=O)[C@H]12 [13-OXO-TAXCHININ A]	10 (≈ 16.3 µM)
CC(=O)O[C@H]1C(=O)[C@@]2(C)[C@H]([C@H](OC(=O)c3ccccc3)[C@]3(O)C[C@H](OC(=O)[C@H](O)[C@@H](NC(=O)c4ccccc4)c4ccccc4)C(C)=C1C3(C)C)[C@]1(OC(C)=O)CO[C@@H]1C[C@@H]2O [PACLITAXEL]	0.03 (≈ 0.0351 µM)
CCC(C)CCC(=O)N[C@@H](c1ccccc1)[C@@H](O)C(=O)O[C@H]1C[C@@]2(O)[C@@H](OC(=O)c3ccccc3)[C@@H]3[C@]4(OC(C)=O)CO[C@@H]4C[C@H](O)[C@@]3(C)C(=O)[C@H](OC(C)=O)C(=C1C)C2(C)C (stereo partly drawn) [TAXUSPINANANE A]	0.01 (≈ 0.0116 µM)
